The values below come from patent US20250197601A1, “COMPOSITION” (LMS CO., LTD., priority 2023, published 2025).

This data set in a line: Solubility of each synthesized compound in multiple solvents at room temperature. It is filed as physicochemical. As to conditions: room temperature (about 25° C.); for Solubility in MEK: methyl ethyl ketone; for Solubility in MIBK: methyl isobutyl ketone. As for the experimental part: The solubility of each compound synthesized above was evaluated. Solubility was evaluated based on the following criteria by evaluating the solubility of each compound in multiple solvents (cyclohexanone, toluene, methyl isobutyl ketone (MIBK), or methyl ethyl ketone (MEK)) at room temperature (about 25° C.).
• A: A case where the solubility is 1% by mass or more. • B: A case where the solubility is 0.5 mass % or more and less than 1 mass %. • C: A case where the solubility is 0.2 mass % or more and less than 0.5 mass %. • D: A case where solubility is less than 0.2 mass %.

SMILES strings stand for the structures.

Consider `CCCCCCN1c2cc(NC(=O)C(CC)CCCC)c(C3=C([O-])/C(=c4\cc5c(cc4NC(=O)C(CC)CCCC)=[N+](CCCCCC)C(C)C5(C)C)C3=O)cc2C(C)(C)C1C` (centres unmarked) [Synthesis Example 5], for which the “Solubility in Cyclohexanone” value is recorded as “A (A case where the solubility is 1% by mass or more.)”, the “Solubility in MEK” value was “A (A case where the solubility is 1% by mass or more.)”, the “Solubility in MIBK” value was “A (A case where the solubility is 1% by mass or more.)” and the “Solubility in Toluene” value is recorded as “A (A case where the solubility is 1% by mass or more.)”.

Turning to `CC(=O)Nc1cc2c(cc1C1=C([O-])/C(=c3\cc4c(cc3NC(C)=O)=[N+](C)C(C)C4(C)C)C1=O)C(C)(C)C(C)N2C` (centres unmarked) [Synthesis Example 7], the “Solubility in Cyclohexanone” value is reported as “A (A case where the solubility is 1% by mass or more.)”; the “Solubility in MEK” value was “B (A case where the solubility is 0.5 mass % or more and less than 1 mass %.)”; the “Solubility in MIBK” value is listed as “A (A case where the solubility is 1% by mass or more.)”; the “Solubility in Toluene” value is “B (A case where the solubility is 0.5 mass % or more and less than 1 mass %.)”.

For `CC(C)(C)C1=C\C(=C/C=C/C=C/c2cc(C(C)(C)C)[o+]c3ccccc23)c2ccccc2O1` [Synthesis Example 13], the “Solubility in Cyclohexanone” value is “A (A case where the solubility is 1% by mass or more.)”; the “Solubility in MEK” value is on record as “A (A case where the solubility is 1% by mass or more.)”; the “Solubility in MIBK” value is “A (A case where the solubility is 1% by mass or more.)”; the “Solubility in Toluene” value is “B (A case where the solubility is 0.5 mass % or more and less than 1 mass %.)”.

Consider `CCCCC(CC)COC(=O)Nc1cc2c(cc1C1=C([O-])/C(=c3\cc4c(cc3NC(=O)OCC(CC)CCCC)=[N+](C)C(C)C4(C)C)C1=O)C(C)(C)C(C)N2C` (centres unmarked) [Synthesis Example 3], for which the “Solubility in Cyclohexanone” value is on record as “A (A case where the solubility is 1% by mass or more.)”, the “Solubility in MEK” value was “A (A case where the solubility is 1% by mass or more.)”, the “Solubility in MIBK” value is listed as “A (A case where the solubility is 1% by mass or more.)” and the “Solubility in Toluene” value was “A (A case where the solubility is 1% by mass or more.)”.

`CCCCCCN1c2cc(NC(C)=O)c(C3=C([O-])/C(=c4\cc5c(cc4NC(C)=O)=[N+](CCCCCC)C(C)C5(C)C)C3=O)cc2C(C)(C)C1C` (centres unmarked) [Synthesis Example 4]: the “Solubility in Cyclohexanone” value is “A (A case where the solubility is 1% by mass or more.)”; the “Solubility in MEK” value was “A (A case where the solubility is 1% by mass or more.)”; the “Solubility in MIBK” value was “A (A case where the solubility is 1% by mass or more.)”; the “Solubility in Toluene” value was “B (A case where the solubility is 0.5 mass % or more and less than 1 mass %.)”.

Turning to `CC(C)(C)C1=C\C(=C/C=C(Cl)/C=C/c2cc(C(C)(C)C)[o+]c3ccccc23)c2ccccc2O1` [Synthesis Example 15], the “Solubility in Cyclohexanone” value is reported as “A (A case where the solubility is 1% by mass or more.)”; the “Solubility in MEK” value is reported as “A (A case where the solubility is 1% by mass or more.)”; the “Solubility in MIBK” value is recorded as “A (A case where the solubility is 1% by mass or more.)”; the “Solubility in Toluene” value is “B (A case where the solubility is 0.5 mass % or more and less than 1 mass %.)”.

As for `CCOC(=O)Nc1cc2c(cc1C1=C([O-])/C(=c3\cc4c(cc3NC(=O)OCC)=[N+](CCOC)C(C)C4(C)C)C1=O)C(C)(C)C(C)N2CCOC` (centres unmarked) [Synthesis Example 1], the “Solubility in Cyclohexanone” value is reported as “A (A case where the solubility is 1% by mass or more.)”; the “Solubility in MEK” value is recorded as “A (A case where the solubility is 1% by mass or more.)”; the “Solubility in MIBK” value is “A (A case where the solubility is 1% by mass or more.)”; the “Solubility in Toluene” value is “B (A case where the solubility is 0.5 mass % or more and less than 1 mass %.)”.

On to `C/C(C1=Nc2ccc3ccccc3c2C1(C)C)=C1/C(=O)C(C(/C)=C2/Nc3ccc4ccccc4c3C2(C)C)=C1O` [Synthesis Example 12], for which the “Solubility in Cyclohexanone” value is “B (A case where the solubility is 0.5 mass % or more and less than 1 mass %.)”; the “Solubility in MEK” value is “C (A case where the solubility is 0.2 mass % or more and less than 0.5 mass %.)”; the “Solubility in MIBK” value is “B (A case where the solubility is 0.5 mass % or more and less than 1 mass %.)”; the “Solubility in Toluene” value was “C (A case where the solubility is 0.2 mass % or more and less than 0.5 mass %.)”.

For `CCCCCCCCS(=O)(=O)Nc1cc2c(cc1C1=C([O-])/C(=c3\cc4c(cc3NS(=O)(=O)CCCCCCCC)=[N+](CCCCCC)C(C)C4(C)C)C1=O)C(C)(C)C(C)N2CCCCCC` (centres unmarked) [Synthesis Example 6], the “Solubility in Cyclohexanone” value is given as “A (A case where the solubility is 1% by mass or more.)”, the “Solubility in MEK” value was “A (A case where the solubility is 1% by mass or more.)”, the “Solubility in MIBK” value is on record as “A (A case where the solubility is 1% by mass or more.)” and the “Solubility in Toluene” value was “A (A case where the solubility is 1% by mass or more.)”.

`COc1ccc2c(c1)/C(=C/C=C(Cl)/C=C/c1cc(C(C)(C)C)[o+]c3ccc(OC)cc13)C=C(C(C)(C)C)O2` [Synthesis Example 16]: the “Solubility in Cyclohexanone” value is “A (A case where the solubility is 1% by mass or more.)”, the “Solubility in MEK” value is listed as “A (A case where the solubility is 1% by mass or more.)”, the “Solubility in MIBK” value is on record as “A (A case where the solubility is 1% by mass or more.)” and the “Solubility in Toluene” value is reported as “A (A case where the solubility is 1% by mass or more.)”.

Consider `CC(C)(C)C1=C\C(=C/C=C(Cl)/C=C/c2cc(-c3ccc(C(C)(C)C)cc3)[o+]c(C(C)(C)C)c2)C=C(c2ccc(C(C)(C)C)cc2)O1` [Synthesis Example 18], for which the “Solubility in Cyclohexanone” value was “A (A case where the solubility is 1% by mass or more.)”; the “Solubility in MEK” value is recorded as “A (A case where the solubility is 1% by mass or more.)”; the “Solubility in MIBK” value is “A (A case where the solubility is 1% by mass or more.)”; the “Solubility in Toluene” value was “B (A case where the solubility is 0.5 mass % or more and less than 1 mass %.)”.

Consider `Cc1ccc2c(c1)/C(=C/C=C/C=C/c1cc(C(C)(C)C)[o+]c3ccc(C)cc13)C=C(C(C)(C)C)O2` [Synthesis Example 14], for which the “Solubility in Cyclohexanone” value is recorded as “A (A case where the solubility is 1% by mass or more.)”, the “Solubility in MEK” value is on record as “A (A case where the solubility is 1% by mass or more.)”, the “Solubility in MIBK” value is “A (A case where the solubility is 1% by mass or more.)” and the “Solubility in Toluene” value is reported as “A (A case where the solubility is 1% by mass or more.)”.

In the case of `CCCCC(CC)COC(=O)Nc1cc2c(cc1C1=C([O-])/C(=c3\cc4c(cc3NC(=O)OCC(CC)CCCC)=[N+](CCOC)C(C)C4(C)C)C1=O)C(C)(C)C(C)N2CCOC` (centres unmarked) [Synthesis Example 2], the “Solubility in Cyclohexanone” value is “A (A case where the solubility is 1% by mass or more.)”; the “Solubility in MEK” value was “A (A case where the solubility is 1% by mass or more.)”; the “Solubility in MIBK” value is “A (A case where the solubility is 1% by mass or more.)”; the “Solubility in Toluene” value is “B (A case where the solubility is 0.5 mass % or more and less than 1 mass %.)”.

For `CC(C)(C)C1=C\C(=C/C=C/C=C/c2cc(-c3ccccc3)[o+]c(C(C)(C)C)c2)C=C(c2ccccc2)O1` [Synthesis Example 17], the “Solubility in Cyclohexanone” value is “B (A case where the solubility is 0.5 mass % or more and less than 1 mass %.)”; the “Solubility in MEK” value was “B (A case where the solubility is 0.5 mass % or more and less than 1 mass %.)”; the “Solubility in MIBK” value was “A (A case where the solubility is 1% by mass or more.)”; the “Solubility in Toluene” value is “B (A case where the solubility is 0.5 mass % or more and less than 1 mass %.)”.
